Experimental data: patent publication US20240325398A1, “COMBINATION THERAPIES” (Infinity Pharmaceuticals, Inc., priority 2014, published 2024)
Structures can show the parent of a compound that is named as a salt.

How the values were obtained:
RL = assay: Combination study, ATPLite 72 h, dose matrix (Synergy Score, CI50); conditions: combination with Compound 1, 72 h
HH = assay: as above; format: cell-based; conditions: combination with Compound 1
Experimental: The method is described as follows.
Additive effect is CI=1.0. […] Antagonistic effect is CI>1.0.
The Synergy Score is calculated as: […]

KARPAS-422 = assay: as above; conditions: combination with Compound 1, 72 h
TMD8 = assay: as above; conditions: combination with Compound 1; TMD8; 72 h
Experimental: (§1) Cells are thawed from a liquid nitrogen preserved state. Once cells have been expanded and divide at their expected doubling times, screening begins. Cells are seeded in growth media in either black 1536-well or 384-well tissue culture treated plates. Cells are then equilibrated in assay plates via centrifugation and placed in incubators attached to the Dosing Modules at 37° C. for 24 hours before treatment. […] These Tzero (To) plates are read using ultra-sensitive luminescence on Envision plate readers (Perkin Elmer). Treated assay plates are incubated with compound for 72 hours. After 72 hours, plates are developed for endpoint analysis using ATPLite. All data points are collected via automated processes, quality controlled and analyzed using Zalicus software.
(§2) where T is treated cell count and V is untreated (vehicle) cell count (at 72 hours). I ranges from 0% (when T=V) to 100% (when T=0). […] The measure of effect in the experiment can be the inhibition of cellular response relative to the untreated level (vehicle alone). […] The inhibition ranges from 0% at the untreated level to 100% when T=0. Inhibition levels are negative for agents that actually increase levels. Other effect measures, such as an activity ratio r=T/V may be more appropriate for some assays. When activity ratios (e.g, fold increase over stimulated control) are being used, the effect can be measured using an induction 1=ln(T/V). With this definition, all effect expressions are the same as for inhibition.
(§3) Growth Inhibition (GI) is used as a measure of cell viability. […] A GI reading of 100% represents complete growth inhibition—T72 compound-treated and T0 vehicle signals are matched. […] A GI reading of 200% represents complete death of all cells in the culture well. Compounds reaching an activity plateau of GI 200% are considered cytotoxic. GI is calculated by applying the following test and equation:
(§4) Combination analysis data were collected in a 6×6 dose matrix. Synergy is calculated by comparing a combination's response to those of its single compound, against the drug-with-itself dose-additive reference model. Deviations from dose additivity may be assessed visually on an isobologram or numerically with a Combination Index (CI). […] Additive effect is CI=1.0. […] Antagonistic effect is CI>1.0.
(§5) The isobologram was drawn by identifying the locus of concentrations that correspond to crossing the indicated inhibition level. This is done by finding the crossing point for each single agent concentration in a dose matrix across the concentrations of the other single agent. Practically, each vertical concentration CY is held fixed while a bisection algorithm is used to identify the horizontal concentration CX in combination with that vertical dose that gives the chosen effect level in the response surface Z(CX,CY). These concentrations are then connected by linear interpolation to generate the isobologram display. For synergistic interactions, the isobologram contour fall below the additivity threshold and approaches the origin, and an antagonistic interaction would lie above the additivity threshold. The error bars represent the uncertainty arising from the individual data points used to generate the isobologram. The uncertainty for each crossing point is estimated from the response errors using bisection to find the concentrations where Z−αZ(CX,CY) and Z+σZ(CX,CY) cross Icut, where αZ is the standard deviation of the residual error on the effect scale.
(§6) To measure combination effects in excess of Loewe additivity, a scalar measure to characterize the strength of synergistic interaction termed the Synergy Score is devised. The Synergy Score is calculated as:
(§7) The fractional inhibition for each component agent and combination point in the matrix is calculated relative to the median of all vehicle-treated control wells.

Farage = assay: as above; conditions: combination with Compound 1; Farage; 72 h
Experimental: as §1, §2, §3, §4, §5, §6, §7

U-2932 = assay: as above; conditions: combination with Compound 1, 72 h
KARPAS-299 = assay: as above; conditions: combination with Compound 1
OMP-2 = assay: as above; conditions: combination with Compound 1; OPM-2
[1] = as above; conditions: combination with Compound 1; OPM-2
GRANTA-519 = assay: as above; conditions: combination with Compound 1
Experimental: as §1, §2, §3, §4, §6
(§8) The fractional inhibition for each component agent and combination point in the matrix is calculated relative to the median of all vehicle-treated control wells. The Synergy Score equation integrates the experimentally-observed activity volume at each point in the matrix in excess of a model surface numerically derived from the activity of the component agents using the Loewe model for additivity. Additional terms in the Synergy Score equation (above) are used to normalize for various dilution factors used for individual agents and to allow for comparison of synergy scores across an entire experiment. The inclusion of positive inhibition gating or an Idata multiplier removes noise near the zero effect level, and biases results for synergistic interactions at that occur at high activity levels.
(§9) Loewe Volume (Loewe Vol) is used to assess the overall magnitude of the combination interaction in excess of the Loewe additivity model. Loewe Volume is particularly useful when distinguishing synergistic increases in a phenotypic activity (positive Loewe Volume) versus synergistic antagonisms (negative Loewe Volume). […] This model defines additivity as a non-synergistic combination interaction where the combination dose matrix surface should be indistinguishable from either drug crossed with itself.

OCI-Ly3 = assay: as above; conditions: combination with Compound 1; OCI-Ly3; 72 h
DOHH-2 = assay: as above; conditions: combination with Compound 1, 72 h
Jeko-1 = assay: as above; conditions: combination with Compound 1
Experimental: as §1, §2, §3, §4, §6, §8, §9

WSU-NHL = assay: as above; conditions: combination with Compound 1, 72 h
SU-DHL-10-epst = assay: as above; conditions: combination with Compound 1, 72 h
SU-DHL-4-epst = assay: as above; conditions: combination with Compound 1, 72 h
Experimental: as §1
The measure of effect in the experiment can be the inhibition of cellular response relative to the untreated level (vehicle alone). […] The inhibition ranges from 0% at the untreated level to 100% when T=0. Inhibition levels are negative for agents that actually increase levels.
as §3, §4, §6, §8
(§10) Loewe Volume (Loewe Vol) is used to assess the overall magnitude of the combination interaction in excess of the Loewe additivity model. Loewe Volume is particularly useful when distinguishing synergistic increases in a phenotypic activity (positive Loewe Volume) versus synergistic antagonisms (negative Loewe Volume). […] This model defines additivity as a non-synergistic combination interaction where the combination dose matrix surface should be indistinguishable from either drug crossed with itself. The calculation for Loewe additivity is:

NCI-H929 = assay: as above; conditions: combination with Compound 1
RPMI-8226 = assay: as above; conditions: combination with Compound 1
HBL-1 = assay: as above; conditions: combination with Compound 1, 72 h
Experimental: as §1, §2, §3, §4, §6, §8, §10

OCI-Ly7 = assay: as above; conditions: combination with Compound 1, 72 h
Mino = assay: as above; conditions: combination with Compound 1

## COc1cccc2c1C(=O)c1c(O)c3c(c(O)c1C2=O)C[C@@](O)(C(=O)CO)C[C@@H]3O[C@H]1C[C@H](N)[C@H](O)[C@H](C)O1 [Doxorubicin HCl]
RL
  CI50 growth inhibition: U (U=0.7 to <1)
  CI50 inhibition: W (W=≥1)
  Synergy Score growth inhibition: A2 (A2=1 to <3)
  Synergy Score inhibition: A1 (A1=0.0001 to <1)
HH
  CI50 growth inhibition: W (W=≥1)
  CI50 inhibition: T (T=0.5 to <0.7)
  Synergy Score growth inhibition: A3 (A3=>3)
  Synergy Score inhibition: A2 (A2=1 to <3)
KARPAS-422
  CI50 growth inhibition: W (W=≥1)
  CI50 inhibition: W (W=≥1)
  Synergy Score growth inhibition: A1 (A1=0.0001 to <1)
  Synergy Score inhibition: A1 (A1=0.0001 to <1)
TMD8
  CI50 growth inhibition: T (T=0.5 to <0.7)
  CI50 inhibition: T (T=0.5 to <0.7)
  Synergy Score growth inhibition: A3 (A3=>3)
  Synergy Score inhibition: A2 (A2=1 to <3)
Farage
  CI50 growth inhibition: U (U=0.7 to <1)
  CI50 inhibition: T (T=0.5 to <0.7)
  Synergy Score growth inhibition: A3 (A3=>3)
  Synergy Score inhibition: A1 (A1=0.0001 to <1)
U-2932
  CI50 growth inhibition: U (U=0.7 to <1)
  CI50 inhibition: W (W=≥1)
  Synergy Score growth inhibition: A2 (A2=1 to <3)
  Synergy Score inhibition: A1 (A1=0.0001 to <1)
KARPAS-299
  CI50 growth inhibition: U (U=0.7 to <1)
  CI50 inhibition: U (U=0.7 to <1)
  Synergy Score growth inhibition: A2 (A2=1 to <3)
  Synergy Score inhibition: A1 (A1=0.0001 to <1)
OMP-2
  CI50 inhibition: W (W=≥1)
  Synergy Score growth inhibition: A2 (A2=1 to <3)
  Synergy Score inhibition: A1 (A1=0.0001 to <1)
[1]
  CI50 growth inhibition: W (W=≥1)
GRANTA-519
  CI50 growth inhibition: S (S=0.01 to <0.5)
  CI50 inhibition: W (W=≥1)
  Synergy Score growth inhibition: A3 (A3=>3)
  Synergy Score inhibition: A1 (A1=0.0001 to <1)
OCI-Ly3
  CI50 growth inhibition: U (U=0.7 to <1)
  CI50 inhibition: W (W=≥1)
  Synergy Score growth inhibition: A2 (A2=1 to <3)
  Synergy Score inhibition: A1 (A1=0.0001 to <1)
DOHH-2
  CI50 growth inhibition: T (T=0.5 to <0.7)
  CI50 inhibition: T (T=0.5 to <0.7)
  Synergy Score growth inhibition: A3 (A3=>3)
  Synergy Score inhibition: A2 (A2=1 to <3)
Jeko-1
  CI50 growth inhibition: T (T=0.5 to <0.7)
  CI50 inhibition: U (U=0.7 to <1)
  Synergy Score growth inhibition: A3 (A3=>3)
  Synergy Score inhibition: A1 (A1=0.0001 to <1)
WSU-NHL
  CI50 growth inhibition: T (T=0.5 to <0.7)
  CI50 inhibition: S (S=0.01 to <0.5)
  Synergy Score growth inhibition: A3 (A3=>3)
  Synergy Score inhibition: A2 (A2=1 to <3)
SU-DHL-10-epst
  CI50 growth inhibition: T (T=0.5 to <0.7)
  CI50 inhibition: T (T=0.5 to <0.7)
  Synergy Score growth inhibition: A3 (A3=>3)
  Synergy Score inhibition: A2 (A2=1 to <3)
SU-DHL-4-epst
  CI50 growth inhibition: U (U=0.7 to <1)
  CI50 inhibition: W (W=≥1)
  Synergy Score growth inhibition: A3 (A3=>3)
  Synergy Score inhibition: A2 (A2=1 to <3)
NCI-H929
  CI50 growth inhibition: U (U=0.7 to <1)
  CI50 inhibition: U (U=0.7 to <1)
  Synergy Score growth inhibition: A3 (A3=>3)
  Synergy Score inhibition: A1 (A1=0.0001 to <1)
RPMI-8226
  CI50 growth inhibition: U (U=0.7 to <1)
  CI50 inhibition: W (W=≥1)
  Synergy Score growth inhibition: A3 (A3=>3)
  Synergy Score inhibition: A2 (A2=1 to <3)
HBL-1
  CI50 growth inhibition: S (S=0.01 to <0.5)
  CI50 inhibition: U (U=0.7 to <1)
  Synergy Score growth inhibition: A3 (A3=>3)
  Synergy Score inhibition: A1 (A1=0.0001 to <1)
OCI-Ly7
  CI50 growth inhibition: S (S=0.01 to <0.5)
  CI50 inhibition: S (S=0.01 to <0.5)
  Synergy Score growth inhibition: A3 (A3=>3)
  Synergy Score inhibition: A2 (A2=1 to <3)
Mino
  CI50 growth inhibition: T (T=0.5 to <0.7)
  CI50 inhibition: T (T=0.5 to <0.7)
  Synergy Score growth inhibition: A3 (A3=>3)
  Synergy Score inhibition: A2 (A2=1 to <3)

## Nc1cccc2c1CN(C1CCC(=O)NC1=O)C2=O (centres unmarked) [lenalidomide, 3-(4-Amino-1-oxo 1,3-dihydro-2H-isoindol-2-yl)piperidine-2,6-dione]
RL
  Synergy Score growth inhibition: A1 (A1=0.0001 to <1)
  Synergy Score inhibition: A1 (A1=0.0001 to <1)
HH
  CI50 growth inhibition: W (W=≥1)
  CI50 inhibition: T (T=0.5 to <0.7)
  Synergy Score growth inhibition: A2 (A2=1 to <3)
  Synergy Score inhibition: A1 (A1=0.0001 to <1)
KARPAS-422
  CI50 growth inhibition: S (S=0.01 to <0.5)
  CI50 inhibition: S (S=0.01 to <0.5)
  Synergy Score growth inhibition: A2 (A2=1 to <3)
  Synergy Score inhibition: A2 (A2=1 to <3)
TMD8
  CI50 growth inhibition: S (S=0.01 to <0.5)
  CI50 inhibition: S (S=0.01 to <0.5)
  Synergy Score growth inhibition: A3 (A3=>3)
  Synergy Score inhibition: A3 (A3=>3)
Farage
  CI50 growth inhibition: W (W=≥1)
  CI50 inhibition: W (W=≥1)
  Synergy Score growth inhibition: A2 (A2=1 to <3)
  Synergy Score inhibition: A1 (A1=0.0001 to <1)
U-2932
  CI50 growth inhibition: U (U=0.7 to <1)
  Synergy Score growth inhibition: A1 (A1=0.0001 to <1)
  Synergy Score inhibition: A1 (A1=0.0001 to <1)
KARPAS-299
  Synergy Score growth inhibition: A1 (A1=0.0001 to <1)
  Synergy Score inhibition: A1 (A1=0.0001 to <1)
OMP-2
  Synergy Score growth inhibition: A2 (A2=1 to <3)
  Synergy Score inhibition: A1 (A1=0.0001 to <1)
[1]
  CI50 growth inhibition: S (S=0.01 to <0.5)
GRANTA-519
  Synergy Score growth inhibition: A1 (A1=0.0001 to <1)
  Synergy Score inhibition: A1 (A1=0.0001 to <1)
OCI-Ly3
  CI50 growth inhibition: W (W=≥1)
  Synergy Score growth inhibition: A1 (A1=0.0001 to <1)
  Synergy Score inhibition: A1 (A1=0.0001 to <1)
DOHH-2
  CI50 growth inhibition: S (S=0.01 to <0.5)
  CI50 inhibition: S (S=0.01 to <0.5)
  Synergy Score growth inhibition: A3 (A3=>3)
  Synergy Score inhibition: A2 (A2=1 to <3)
Jeko-1
  CI50 growth inhibition: S (S=0.01 to <0.5)
  CI50 inhibition: T (T=0.5 to <0.7)
  Synergy Score growth inhibition: A2 (A2=1 to <3)
  Synergy Score inhibition: A2 (A2=1 to <3)
WSU-NHL
  CI50 growth inhibition: T (T=0.5 to <0.7)
  CI50 inhibition: S (S=0.01 to <0.5)
  Synergy Score growth inhibition: A3 (A3=>3)
  Synergy Score inhibition: A2 (A2=1 to <3)
SU-DHL-10-epst
  CI50 growth inhibition: T (T=0.5 to <0.7)
  CI50 inhibition: T (T=0.5 to <0.7)
  Synergy Score growth inhibition: A2 (A2=1 to <3)
  Synergy Score inhibition: A2 (A2=1 to <3)
SU-DHL-4-epst
  CI50 growth inhibition: W (W=≥1)
  CI50 inhibition: T (T=0.5 to <0.7)
  Synergy Score growth inhibition: A2 (A2=1 to <3)
  Synergy Score inhibition: A1 (A1=0.0001 to <1)
NCI-H929
  CI50 growth inhibition: T (T=0.5 to <0.7)
  CI50 inhibition: S (S=0.01 to <0.5)
  Synergy Score growth inhibition: A3 (A3=>3)
  Synergy Score inhibition: A3 (A3=>3)
RPMI-8226
  Synergy Score growth inhibition: A1 (A1=0.0001 to <1)
  Synergy Score inhibition: A1 (A1=0.0001 to <1)
HBL-1
  CI50 growth inhibition: W (W=≥1)
  Synergy Score growth inhibition: A1 (A1=0.0001 to <1)
  Synergy Score inhibition: A1 (A1=0.0001 to <1)
OCI-Ly7
  Synergy Score growth inhibition: A1 (A1=0.0001 to <1)
  Synergy Score inhibition: A1 (A1=0.0001 to <1)
Mino
  CI50 growth inhibition: T (T=0.5 to <0.7)
  CI50 inhibition: W (W=≥1)
  Synergy Score growth inhibition: A2 (A2=1 to <3)
  Synergy Score inhibition: A1 (A1=0.0001 to <1)
